Experimental data from patent publication US20130111611A1, “METHOD TO MEASURE THE METABOLIC RATE OR RATE OF GLUCOSE CONSUMPTION OF CELLS OR TISSUES WITH HIGH SPATIOTEMPORAL RESOLUTION USING A GLUCOSE NANOSENSOR” (CARNEGIE, INSTITUTION OF WASHINGTON, priority 2010, published 2013).

System: cultured astrocytes
Test: Intracellular glucose and glycolytic rate in cultured astrocytes with FRET glucose nanosensor (ITM)
Assay type: cell-based, mouse
Conditions: for glycolytic rate obtained with the GLUT inhibitor: cultured astrocytes, n=20 cells in three paired experiments, not significantly different between inhibitors; for effect on the intracellular concentration of glucose: cultured astrocytes exposed to the compound, FIG. 3a
Description: In another embodiment, the disruption of the glucose steady-state can be attained by blocking the glucose transporter GLUT with a suitable inhibitor (ITM).
Independent of the embodiment of the method used to disrupt the steady-state, the rate of glycolysis is estimated by fitting a monoexponential function to the time course of decay. In one embodiment, the metabolic rate is computed from the rate of glucose concentration decrease at the point when the intracellular concentration becomes equal to the extracellular concentration, for instance at 0.3 mM (interrupted line in FIG. 2b). In a second embodiment, in the presence of a GLUT blocker, the metabolic rate is computed from the rate of glucose concentration decrease at any glucose concentration.
Animals used were mixed F1 male mice (C57BU6J×CBA/J), kept in an animal room under SPF conditions at a room temperature of 20±2° C., in a 12/12 h light/dark cycle with free access to food and water. All experiments were approved by the Centro de Estudios Científicos Animal Care and Use Committee. Mixed cortical cultures of neuronal and glial cells were prepared from 1-3 day-old neonatal mice as described in Loaiza et al.^19, except that N1-N2/MEM was replaced by B27-supplemented Neurobasal medium (Gibco). Cultures were maintained at 37° C. in a humidified atmosphere of 5% CO2. At days 5-7, cultures in 35 mm dishes were transfected with 5 μg plasmid DNA using Lipofectamine 2000 (Gibco) or alternatively, exposed to 5×10^6 PFU of adenoviral vector.
Experiments were carried out at room temperature (22-25° C.). Cultured cells were imaged in HEPES-buffered saline containing (in mM): 136 NaCl, 3 KCl, 1.25 CaCl2, 1.25 MgSO4, 1-2 glucose, 2 sodium lactate, 10 HEPES, pH 7.4 or in 95% O2/5% CO2-gassed buffer of the following composition (in mM): 112 NaCl, 3 KCl, 1.25 CaCl2, 1.25 MgCl2, 1-2 glucose, 2 sodium lactate, 10 HEPES, 24 NaHCO3, pH 7.4. Brain slices were superfused with a 95% O2/5% CO2-gassed buffer containing (in mM): 126 NaCl, 3 KCl, 1.25 NaH2PO4, 1.25 CaCl2, 1.25 MgCl2, 2-3 glucose, 1 sodium lactate, 26 NaHCO3, pH 7.4. When using higher K^+ concentrations, NaCl was adjusted to maintain isotonicity. Cultures and slices were imaged with an Olympus IX70 inverted microscope equipped with a 40× oil-immersion objective, a Cairn monochromator with Optosplit (Faversham, UK), and a Hamamatsu Orca camera (Hamamatsu City, Japan) controlled by Kinetics software. For FRET measurements, CFP was excited at 430 nm for 400 ms. Because of the very high FRET efficiency of FLII12 Pglu600μ ? , which results in low CFP signal^7, we opted for not using the CFP signal in our protocol. Instead, YFP/citrine was excited for 50 ms, which provided a sugar-insensitive denominator for the FRET ratio. […]

SMILES | glycolytic rate obtained with the GLUT inhibitor [µM/s] | effect on the intracellular concentration of glucose
O=C(CCc1ccc(O)cc1)c1c(O)cc(O)cc1O [Phloretin] | 1.7 ± 0.3 | –
C=C1[C@@H](C)[C@H]2[C@H](Cc3ccccc3)NC(=O)[C@]23OC(=O)/C=C/[C@H](O)CCC[C@@H](C)C/C=C/[C@H]3[C@@H]1O [cytochalasin B] | 1.8 ± 0.3 | linear decrease in the concentration of glucose
C=C1[C@@H](C)[C@H]2[C@H](Cc3ccccc3)NC(=O)[C@]23[C@H](OC(C)=O)/C=C/[C@@](C)(O)C(=O)[C@@H](C)C/C=C/[C@H]3[C@@H]1O [cytochalasin D] | – | did not affect the concentration of glucose
